Measured values taken from patent publication US7728015B2, “Compositions for weight management” (Mor Research Applications Ltd., priority 2004, dated 2010).
Where two headings read alike, the source gives them in different places.

Assays:
[1] = cited from earlier work
[2] = Blood metabolite levels of a healthy overweight person before and after one month of betahistine; format: in vivo, human; design: Total cholesterol / HDL-cholesterol / LDL-cholesterol / Triglycerides: unit not given here
[3] = pygmy goats, high doses intraperitoneally; cited from earlier work
[4] = rats, cited from earlier work
[5] = Randomized placebo controlled double-blinded study of oral betahistine on food intake, caloric intake and weight in obese persons; format: in vivo, human
Protocol: Weight, caloric intake (24 hour recall) and appetite during the day (VAS, Visual Analogue Score) were obtained on day 0, 14 and 28 of the study. Subjects were instructed to eat according to their appetite without limitations. Statistical significance was assessed with t-test. BMI stands for body mass index.

[6] = in vivo, cited from earlier work
H3-receptor = H3-receptor (Homo sapiens, UniProt Q9Y5N1); conditions: receptor binding studies; cited from earlier work
Chain of H3-receptor (Q9Y5N1 whole entry): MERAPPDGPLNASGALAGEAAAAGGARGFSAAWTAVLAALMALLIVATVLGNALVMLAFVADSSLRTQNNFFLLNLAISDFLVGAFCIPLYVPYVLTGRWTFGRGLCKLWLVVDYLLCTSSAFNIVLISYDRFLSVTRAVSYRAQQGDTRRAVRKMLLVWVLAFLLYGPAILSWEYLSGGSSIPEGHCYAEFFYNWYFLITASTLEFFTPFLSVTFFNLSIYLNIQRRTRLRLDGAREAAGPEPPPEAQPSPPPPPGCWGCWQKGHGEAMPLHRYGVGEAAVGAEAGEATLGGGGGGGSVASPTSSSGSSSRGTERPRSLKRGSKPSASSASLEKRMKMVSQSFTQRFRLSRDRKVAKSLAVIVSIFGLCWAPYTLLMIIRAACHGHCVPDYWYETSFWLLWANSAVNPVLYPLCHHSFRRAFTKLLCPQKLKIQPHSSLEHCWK

[7] = rats, cited from earlier work; remark: listed apart in the source
[8] = Day 30, betahistine 16 mg twice daily, blood test
[9] = betahistine 16 mg orally twice a day, FIG. 5

## CNCCc1ccccn1 [betahistine, 2-[2-(methylamino)ethyl]pyridine]
[1]; betahistine and olanzapine for 6 weeks, three patients
  weight gain from week 2 to the end of the study: no weight gain was observed
[1]; betahistine/olanzapine-treated patients, 6 weeks
  mean weight gain compared with olanzapine/placebo-treated patients: lower
[2]; [8]
  Fructoseamine: 202
  HDL-cholesterol: 58
  LDL-cholesterol: 84
  Total cholesterol: 155
  Triglycerides: 62
[2]; Day 30 vs Day 0
  Fructoseamine Change: +4%
  HDL-cholesterol Change: +7%
  LDL-cholesterol Change: −15%
  Total cholesterol Change: −7%
  Triglycerides Change: −10%
[3]
  food intake: decreased food intake
  water intake: increased water intake
[4]; given intragastrically
  food intake: this effect was not seen
[4]; given intraperitoneally
  food intake: decreased food intake
[5]; Subject No. 5, day 5, betahistine 16 mg twice a day
  adverse event reported by a subject: food aversion that did not allow them to consume any food
[5]; [9]
  reduction in carbohydrate consumption: 6%
  reduction in fat consumption: 49%
  reduction in protein consumption: 35%
[5]; betahistine 16 mg orally twice a day, day 14 of treatment
  total caloric intake: 80 percents of the pre-treatment level
[5]; betahistine 16 mg orally twice a day, day 28 of treatment
  total caloric intake: 68 percents of the pre-treatment level
[5]; treatment group, 28 day study, no food restriction
  subjects who lost more than 1 kg during the study period: Four out of seven
[6]
  half-life: about 3.5 hours
[6]; listed as Betahistine
  half-life: 3.5 h
H3-receptor
  H3-receptor activity: potent H3-receptor antagonist

## Cc1nc(N)nc(N)c1-c1ccc(Cl)c(Cl)c1 [metoprine]
[7]; FIG. 2
  intakes of carbohydrates or protein: no marked effect
[7]; intraperitoneal injection
  daily energy intake and ingestion of fat: suppressed daily energy intake and ingestion of fat
[6]
  half-life: 216 h
